# pEC50, pIC50, pKi: −log10 of the molar value. Non-standard residues stand in square brackets, D forms with d. Residues, ends and D or L forms follow the SMILES beside them. *: point of attachment. Cbz = O=C(OCc1ccccc1)*; Dap = NC[C@H](N)C(=O)O
# Key:
# [1] = Cysteine reactivity of the compound assessed as second order rate constant by 1H NMR analysis
# [2] = Lysine reactivity of the compound in aqueous buffer assessed as drug recovery after 6 days at pH 7.4
# [3] = Thiol reactivity of the compound in PBS buffer assessed as pseudo-first order rate constant for adduct formation in presence of 4-nitrobenzenethiol at pH 7.4 by stop-flow spectrophotometric analysis
# [4] = Methanethiol reactivity of the compound in CD3OD/deuterio phosphate buffer assessed as equilibrium constant for adduct formation at pH 7.4 by […] analysis
# [5] = Butanethiol reactivity of the compound in CD3OD/deuterio phosphate buffer assessed as equilibrium constant for adduct formation at pH 7.4 by […] analysis
# [6] = Beta-mercaptoethanol reactivity of the compound in CD3OD/deuterio phosphate buffer assessed as equilibrium constant for adduct formation at pH 7.4 by […] analysis
# [7] = Cysteine reactivity of the compound in CD3OD/deuterio phosphate buffer assessed as equilibrium constant for adduct formation at pH 7.4 by […] analysis
# [8] = Glutathione reactivity of the compound in CD3OD/deuterio phosphate buffer assessed as equilibrium constant for adduct formation at pH 7.4 by […] analysis
# [9] = Thiol reactivity of the compound assessed as equilibrium constant for adduct formation
# [10] = Glutathione reactivity of the compound in DMSO and phosphate buffer assessed as second order rate constant for adduct formation
# Tetrahymena pyriformis = test: Toxicity in Tetrahymena pyriformis assessed as growth inhibition after 48 hrs
# Exportin-1 = Exportin-1 (Homo sapiens, UniProt O14980); test: Inhibition of CRM1-mediated nucleocytoplasmic transport in human HeLa cells after 90 mins by immunofluorescence assay; format: cell-based
# [11] = Inhibition of wild-type HCV genotype 1b protease using 5-FAM/QXL 520 as substrate after 60 to 90 mins by FRET-based assay; parameters: species or system Hepatitis C virus subtype 1b
# [12] = biological target: Sodium-dependent dopamine transporter (Rattus norvegicus, UniProt P23977); test: Inhibition of [3H]dopamine uptake at DAT in rat brain striatal synaptosomes by liquid scintillation counting analysis; format: subcellular, Striatum
# Papain (Carica papaya) = biological target: T1, Papain (Carica papaya) (UniProt P00784); test: Irreversible inhibition of Carica papaya papain assessed as ratio of Kinact to Ki
# T1 sequence (whole entry): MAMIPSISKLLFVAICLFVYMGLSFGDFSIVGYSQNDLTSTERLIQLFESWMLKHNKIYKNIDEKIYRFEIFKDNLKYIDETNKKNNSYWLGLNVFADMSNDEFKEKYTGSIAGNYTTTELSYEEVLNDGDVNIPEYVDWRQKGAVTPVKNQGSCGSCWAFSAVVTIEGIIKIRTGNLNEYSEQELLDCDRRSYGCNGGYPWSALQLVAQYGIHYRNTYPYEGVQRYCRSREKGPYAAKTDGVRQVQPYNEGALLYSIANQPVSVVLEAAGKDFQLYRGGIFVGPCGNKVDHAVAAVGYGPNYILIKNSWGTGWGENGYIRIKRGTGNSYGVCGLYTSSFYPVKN
# [13] = Glutathione reactivity of the compound in DMSO/HEPES buffer assessed as second order rate constant for adduct formation at pH 7.4 by spectroscopic analysis
# [14] = Inhibition of PI3K (unknown origin); parameters: species or system Homo sapiens
# [15] = Cysteamine reactivity of the compound in TRIS-HCL assessed as second order rate constant at 40 uM and pH 7.4 by stopped-flow assay
# [16] = Glutathione reactivity of the compound assessed as adduct formation after 2 mins by mass spectrometric analysis
# [17] = Cysteine reactivity of the compound assessed as adduct formation after 2 mins by mass spectrometric analysis
# [18] = Glutathione reactivity of the compound assessed as second order rate constant by 1H NMR analysis
# [19] = biological target: Adenosylhomocysteinase (Homo sapiens) (UniProt P23526); test: Inhibition of S-adenosyl-L-homocysteine hydrolase (unknown origin)
# [20] = biological target: Adenosylhomocysteinase (Homo sapiens) (UniProt P23526); test: Ratio of Kinact to Ki for S-adenosyl-L-homocysteine hydrolase (unknown origin)
# [21] = biological target: Proto-oncogene tyrosine-protein kinase Src (Gallus gallus, UniProt P00523, S345C); test: Inhibition of chicken c-Src S345C mutant (251 to 533 residues) expressed in Escherichia coli by fluorescence assay
# [22] = tested on: Proto-oncogene tyrosine-protein kinase Src (Gallus gallus), P00523 [S345C]; test: Ratio of Kinact to Ki for chicken c-Src S345C mutant (251 to 533 residues) expressed in Escherichia coli
# [23] = biological target: T2, Calpain-1 catalytic subunit (Homo sapiens, UniProt P07384); test: Inhibition of human calpain 1 protease using Ac-LLY-AFC as substrate after 1 hr by fluorescence assay
# T2 sequence (P07384 whole entry): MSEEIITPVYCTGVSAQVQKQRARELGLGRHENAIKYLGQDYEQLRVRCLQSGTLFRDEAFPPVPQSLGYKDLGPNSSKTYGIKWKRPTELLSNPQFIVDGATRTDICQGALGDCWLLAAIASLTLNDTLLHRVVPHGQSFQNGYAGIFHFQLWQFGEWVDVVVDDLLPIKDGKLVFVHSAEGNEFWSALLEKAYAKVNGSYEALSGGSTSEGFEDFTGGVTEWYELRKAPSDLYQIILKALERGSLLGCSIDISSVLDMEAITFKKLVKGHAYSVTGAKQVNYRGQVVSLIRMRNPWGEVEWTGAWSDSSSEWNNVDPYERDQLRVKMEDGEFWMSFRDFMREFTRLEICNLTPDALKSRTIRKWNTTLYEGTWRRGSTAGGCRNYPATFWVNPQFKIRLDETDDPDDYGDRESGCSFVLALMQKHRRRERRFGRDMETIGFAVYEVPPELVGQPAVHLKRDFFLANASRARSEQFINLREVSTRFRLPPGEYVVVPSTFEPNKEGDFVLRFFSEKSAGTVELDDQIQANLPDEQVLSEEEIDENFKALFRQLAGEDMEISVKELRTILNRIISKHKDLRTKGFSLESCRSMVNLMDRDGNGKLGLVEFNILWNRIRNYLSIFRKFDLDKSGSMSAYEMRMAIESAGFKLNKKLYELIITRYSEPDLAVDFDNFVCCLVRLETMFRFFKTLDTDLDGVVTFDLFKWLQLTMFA
# [24] = Binding affinity to human rhinovirus serotype 14 3C protease; parameters: species or system rhinovirus B14
# Sequence of Sodium-dependent dopamine transporter (P23977 whole entry): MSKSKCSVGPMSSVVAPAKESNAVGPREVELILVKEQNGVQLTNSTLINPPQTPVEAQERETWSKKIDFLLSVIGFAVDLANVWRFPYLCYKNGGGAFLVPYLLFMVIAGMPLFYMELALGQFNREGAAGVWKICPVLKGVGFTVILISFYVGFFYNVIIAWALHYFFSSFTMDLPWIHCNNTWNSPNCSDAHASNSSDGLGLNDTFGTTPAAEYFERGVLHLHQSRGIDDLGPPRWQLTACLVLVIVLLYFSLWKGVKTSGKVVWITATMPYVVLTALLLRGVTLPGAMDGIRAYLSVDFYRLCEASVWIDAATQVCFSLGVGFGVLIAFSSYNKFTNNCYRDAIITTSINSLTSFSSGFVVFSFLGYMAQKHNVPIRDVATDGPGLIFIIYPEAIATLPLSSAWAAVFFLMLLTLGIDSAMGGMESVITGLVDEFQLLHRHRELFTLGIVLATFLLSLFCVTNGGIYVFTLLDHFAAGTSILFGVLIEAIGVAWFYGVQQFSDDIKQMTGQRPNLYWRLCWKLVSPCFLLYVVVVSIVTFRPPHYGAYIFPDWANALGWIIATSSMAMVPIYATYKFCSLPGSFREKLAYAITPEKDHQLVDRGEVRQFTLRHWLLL
# Sequence of Exportin-1 (O14980 whole entry): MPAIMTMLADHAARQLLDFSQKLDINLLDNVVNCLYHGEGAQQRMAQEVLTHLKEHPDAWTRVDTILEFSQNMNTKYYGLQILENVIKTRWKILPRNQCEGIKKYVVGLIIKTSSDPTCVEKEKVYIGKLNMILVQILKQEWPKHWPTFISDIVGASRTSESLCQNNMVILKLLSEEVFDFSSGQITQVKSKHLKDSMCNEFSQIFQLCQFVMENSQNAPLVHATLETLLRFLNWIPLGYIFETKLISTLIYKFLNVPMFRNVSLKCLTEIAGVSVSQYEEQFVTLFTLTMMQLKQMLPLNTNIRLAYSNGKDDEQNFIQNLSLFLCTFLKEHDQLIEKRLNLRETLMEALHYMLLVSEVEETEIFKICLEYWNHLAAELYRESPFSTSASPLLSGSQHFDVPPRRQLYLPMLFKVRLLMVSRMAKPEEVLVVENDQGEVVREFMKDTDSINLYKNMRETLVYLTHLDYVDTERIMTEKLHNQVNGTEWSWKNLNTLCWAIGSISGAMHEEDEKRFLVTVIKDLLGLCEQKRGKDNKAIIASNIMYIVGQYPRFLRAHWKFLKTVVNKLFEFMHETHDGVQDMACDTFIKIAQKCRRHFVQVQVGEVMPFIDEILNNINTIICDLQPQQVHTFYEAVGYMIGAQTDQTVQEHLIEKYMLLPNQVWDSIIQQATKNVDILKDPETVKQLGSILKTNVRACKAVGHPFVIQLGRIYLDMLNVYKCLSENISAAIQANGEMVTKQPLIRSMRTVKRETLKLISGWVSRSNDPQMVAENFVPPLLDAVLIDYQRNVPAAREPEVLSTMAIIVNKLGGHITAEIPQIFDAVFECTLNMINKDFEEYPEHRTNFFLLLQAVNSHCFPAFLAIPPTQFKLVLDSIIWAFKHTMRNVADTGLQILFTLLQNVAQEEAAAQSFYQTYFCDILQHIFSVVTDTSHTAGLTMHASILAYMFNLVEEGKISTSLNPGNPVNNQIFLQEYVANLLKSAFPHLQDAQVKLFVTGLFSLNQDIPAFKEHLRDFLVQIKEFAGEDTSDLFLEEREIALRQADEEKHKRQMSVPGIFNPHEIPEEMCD
# Sequence of Adenosylhomocysteinase (Homo sapiens) (P23526 2-432 limits assumed): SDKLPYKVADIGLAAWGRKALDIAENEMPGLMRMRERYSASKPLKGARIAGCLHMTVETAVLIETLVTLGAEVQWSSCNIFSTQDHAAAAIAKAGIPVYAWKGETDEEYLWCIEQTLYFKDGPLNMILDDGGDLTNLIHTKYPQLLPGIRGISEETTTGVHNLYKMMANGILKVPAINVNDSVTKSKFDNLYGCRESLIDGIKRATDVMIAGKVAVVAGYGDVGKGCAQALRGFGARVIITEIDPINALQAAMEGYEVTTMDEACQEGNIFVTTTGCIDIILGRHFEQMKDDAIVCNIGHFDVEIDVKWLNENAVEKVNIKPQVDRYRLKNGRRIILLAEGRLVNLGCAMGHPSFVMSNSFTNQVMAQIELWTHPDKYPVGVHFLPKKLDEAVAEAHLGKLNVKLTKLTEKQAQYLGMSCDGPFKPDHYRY
compound,measurement,setting,value
C=C(C)C(=O)O[C@H]1CC2=C[C@@H](C[C@@]3(C)O[C@H]3[C@H]3OC(=O)C(=C)[C@@H]31)OC2=O,K,[1],20 M⁻¹ s⁻¹
same,Drug recovery,[2],75%
O=[N+]([O-])c1ccc(Sc2cc(O)ccc2O)cc1,K,[3],1.5 ×10³ /s
CCCCC[C@H](O)/C=C/[C@H]1C=CC(=O)[C@@H]1CCCCCCC(=O)OC,Ke,[4],6.1 to 10.8 M⁻¹
same,Ke,[5],6.1 to 10.8 M⁻¹
same,Ke,[6],6.1 to 10.8 M⁻¹
same,Ke,[7],6.1 to 10.8 M⁻¹
same,Ke,[8],6.1 to 10.8 M⁻¹
CC1=CC(=O)CC1,Ke,[9],0.88 M⁻¹
same,K,[10],0.074 M⁻¹ s⁻¹
same,pEC50,Tetrahymena pyriformis,1.68
CC(C)(C)c1cc(O)cc(Sc2ccc([N+](=O)[O-])cc2)c1O,K,[3],2.3 ×10¹ /s
CCC(=C/C(C)C)/C=C/[C@@H]1OC(=O)C=C[C@@H]1C,pIC50,Exportin-1,7.60
C=CC(=O)NCC(=O)N1C[C@H](Oc2nccc3ccc(Br)cc23)C[C@H]1C(=O)N[C@]1(C(=O)CS(=O)(=O)C2CC2)C[C@H]1C=C,pIC50,[11],8.70
CCN1C(=O)C=CC1=O [N-ETHYLMALEIMIDE],K,[1],3750 M⁻¹ s⁻¹
same,pIC50,[12],4.33
CC1C(=O)CCC1Sc1ccccc1 (centres undefined),Ke,[9],1.28 M⁻¹
COC(=O)/C=C/CNC(=O)C1CCN(C(=O)CC(C)C)CC1,Ratio,Papain (Carica papaya),0.5 M⁻¹ s⁻¹
CCN(CC)c1ccc2cc(C(CC(C)=O)SC[C@H](NC(=O)CC[C@H](N)C(=O)O)C(=O)NCC(=O)O)c(=O)oc2c1 (some centres undefined),K,[13],0.007 M⁻¹ s⁻¹
CCCCC[C@H](O)/C=C/[C@H]1C=CC(=O)/C1=C/CCCCCC(=O)OC,Ke,[4],0.35 to 1.6 M⁻¹
same,Ke,[5],0.35 to 1.6 M⁻¹
same,Ke,[6],0.35 to 1.6 M⁻¹
same,Ke,[7],0.35 to 1.6 M⁻¹
same,Ke,[8],0.35 to 1.6 M⁻¹
COC(=O)/C=C/CNC(=O)[C@H](CNC(C)=O)Cc1ccccc1,Ratio,Papain (Carica papaya),0.4 M⁻¹ s⁻¹
CCC(=C/[C@H](C)C/C=C/C(C)=C/[C@@H](C)C(=O)[C@@H](C)[C@H](O)[C@@H](C)C/C(C)=C/C(=O)O)/C=C/[C@@H]1OC(=O)C=C[C@@H]1C [LEPTOMYCIN B],pIC50,Exportin-1,9.00
CO[C@H]1OC(=O)/C(=C\SC(C)C)C2=C(O)C(=O)C3=C([C@H](OC(C)=O)C[C@]4(C)C(=O)CC[C@@H]34)[C@]21C,pIC50,[14],10.00
COC[C@H]1OC(=O)c2coc3c2[C@@]1(C)C1=C(C3=O)[C@@H]2CCC(=O)[C@@]2(C)C[C@H]1OC(C)=O [WORTMANNIN],pIC50,[14],9.10
COc1ccc(C(=O)C(C(SCCN)c2ccc(OC)c(OC)c2)C(F)(F)F)c(OC)c1 (centres undefined),K,[15],17 M⁻¹ s⁻¹
CO[C@H]1OC(=O)/C(=C\Sc2ccccc2)C2=C(O)C(=O)C3=C([C@H](OC(C)=O)C[C@]4(C)C(=O)CC[C@@H]34)[C@]21C,pIC50,[14],9.30
CCCCC[C@@H](O)C/C=C1/C(=O)C=C[C@@H]1C/C=C\CCCC(=O)O,Drug metabolism,[16],70%
same,Drug metabolism,[17],85%
C=CC(=O)N[C@H](C)C(=O)N1C[C@H](Oc2nccc3ccc(Br)cc23)C[C@H]1C(=O)N[C@]1(C(=O)CS(=O)(=O)C2CC2)C[C@H]1C=C,pIC50,[11],8.40
C=C1CCOC1=O,K,[18],1.3 ×10⁻⁴ /M/s
COC1=C(OC)/C(=C/Cn2cnc3c(N)ncnc32)OC1=O,K,[19],84.9 M⁻¹ s⁻¹
same,Ratio,[20],152 M⁻¹ s⁻¹
C=C[C@@]12COC(=O)C(=C)[C@@H]1[C@H]1OC(=O)C(=C)[C@@H]1[C@@H](O)C2,K,[1],200 M⁻¹ s⁻¹
same,Drug recovery,[2],75%
C=CS(=O)(=O)Nc1ccc2ncnc(Nc3cccc(Br)c3)c2c1,pIC50,[21],8.70
same,Ratio,[22],1.03 M⁻¹ s⁻¹
CCN(CC)c1ccc2cc(C(SC[C@H](NC(=O)CC[C@H](N)C(=O)O)C(=O)NCC(=O)O)C(C(C)=O)C(C)=O)c(=O)oc2c1 (some centres undefined),K,[13],12 M⁻¹ s⁻¹
CCCCCC/C=C\CC(=O)N[C@@H](CO)C(=O)N[C@H](C(=O)N[C@@H](CO)[C@@H](O)CC(=O)N[C@H](C(=O)N[C@@H]1/C=C/C(=O)N[C@@H](C(C)C)C(=O)N(C)[C@@H](Cc2ccc(O)cc2)C(=O)OC1)C(C)C)C(C)C,pIC50,[23],7.10 to 8.52
CCN(CC)c1ccc2cc(C(CC(=O)OC)SC[C@H](NC(=O)CC[C@H](N)C(=O)O)C(=O)NCC(=O)O)c(=O)oc2c1 (some centres undefined),K,[13],0 M⁻¹ s⁻¹
CN(C)C/C=C/C(=O)Nc1ccc2ncnc(Nc3cccc(Br)c3)c2c1,pIC50,[21],6.62
same,Ratio,[22],0.085 M⁻¹ s⁻¹
CCN(CC)c1ccc2cc(C(CC=O)SC[C@H](NC(=O)CC[C@H](N)C(=O)O)C(=O)NCC(=O)O)c(=O)oc2c1 (some centres undefined),K,[13],0.41 M⁻¹ s⁻¹
C/C=C(\C)C[C@H](C)[C@@H](O)[C@H](C)C(=O)[C@H](C)/C=C(C)/C=C/C[C@@H](C)/C=C(\C=C\[C@H]1CC=CC(=O)O1)CC,pIC50,Exportin-1,8.00
COc1ccc(C(=O)C(C(SCCN)c2ccc(OC)c(OC)c2)[N+](=O)[O-])c(OC)c1 (centres undefined),K,[15],750 M⁻¹ s⁻¹
COc1ccc(C(=O)C(Br)C(SCCN)c2ccc(OC)c(OC)c2)c(OC)c1 (centres undefined),K,[15],2.9 M⁻¹ s⁻¹
Cc1cc(O)cc(Sc2ccc([N+](=O)[O-])cc2)c1O,K,[3],3.2 ×10² /s
CO[C@H]1OC(=O)/C(=C\N(C2CC2)C2CC2)C2=C(O)C(=O)C3=C([C@H](OC(C)=O)C[C@]4(C)C(=O)CC[C@@H]34)[C@]21C,pIC50,[14],9.52
CC(=O)NC[C@@H](C=O)NC(=O)[C@H](Cc1ccccc1)NC(=O)[C@H](CC(C)C)NC(=O)OCc1ccccc1 (Cbz-Leu-Phe-[Dap](Ac)-aldehyde),pKi,[24],8.22
COC(=O)/C=C/CNC(=O)[C@@H](CNC(C)=O)Cc1ccccc1,Ratio,Papain (Carica papaya),6.6 M⁻¹ s⁻¹
C=C[C@@H]1C[C@]1(NC(=O)[C@@H]1C[C@@H](Oc2nccc3ccc(Br)cc23)CN1C(=O)[C@@H](C)NC(=O)CC)C(=O)CS(=O)(=O)C1CC1,pIC50,[11],5.94
COC(=O)/C=C/CNC(=O)c1cc(-c2ccc(C)cc2)no1,Ratio,Papain (Carica papaya),1.2 M⁻¹ s⁻¹
CCCCC[C@@H](O)C/C=C1/C(=O)C[C@H](O)[C@@H]1C/C=C\CCCC(=O)O,Drug metabolism,[17],60%
C=CC(C)=O,pIC50,[12],3.48
O=C1C=CCC1,Ke,[9],3900 M⁻¹
same,K,[10],25.6 M⁻¹ s⁻¹
Cc1cc(O)c(C)c(Sc2ccc([N+](=O)[O-])cc2)c1O,K,[3],7.3 ×10⁻¹ /s
C=CC=O [ACROLEIN],pIC50,[12],4.28
COc1ccc(C(=O)C(C#N)C(SCCN)c2ccc(OC)c(OC)c2)c(OC)c1 (centres undefined),K,[15],5700 M⁻¹ s⁻¹
C=C1C(=O)O[C@H]2[C@H]1[C@H](OC(=O)/C(C)=C\C)CC(=C)[C@@H]1[C@H](O)[C@H]3O[C@@]3(C)[C@@]12O,K,[1],42 M⁻¹ s⁻¹
same,Drug recovery,[2],75%

# From ChEMBL document CHEMBL4024702, “Covalent Modifiers: A Chemical Perspective on the Reactivity of α,β-Unsaturated Carbonyls with Thiols via Hetero-Michael Addition Reactions” (J Med Chem, 2017)
